{"source": "patent US20260317367A1", "about": "“SALTS INCLUDING CRYSTALLINE SALTS OF 25-HYDROXY-CHOLEST-5-EN-3-SULFATE AND METHODS FOR PREPARING SAME” (Durect Corporation, priority 2022, published 2026)", "key": {"[1]": {"test": "Dynamic vapor sorption (DVS), hygroscopicity", "type": "physicochemical", "settings": "for Water uptake (weight gain) up to about 95% relative humidity: 5% to about 95% RH; for Reversibility of water uptake (in words): RH reduced from 95% to 5%", "excerpt": "Dynamic vapor sorption (DVS) measures the uptake of a vapor (typically water) by a sample when exposed to a changing relative humidity. The loss of water can also be measured as relative humidity is decreased. Hygroscopic materials tend to absorb water more readily than non-hygroscopic. In some cases, hydrates absorb water to create higher-order hydrates (e.g., a monohydrate converting to a dihydrate when exposed to increasingly humid conditions). In some salts of the disclosure, moisture is retained upon exposure in a DVS experiment and little or no weight loss is observed upon heating from room temperature. In such experiments, the hygroscopic nature of the salt under study may indicate the formation of a hydrate from an anhydrate. […] Exemplary methods for collecting DVS data are set forth in Example 26.\nDynamic vapor sorption data was collected on a Surface Measurement System DVS Intrinsic instrument. The samples were not dried prior to analysis. Sorption and desorption data were collected over a range from 5% to 95% RH in 10% RH increments under a nitrogen purge. The equilibrium criteria used for the analyses were 0.001 dm/dt weight change in 5 minutes with a minimum step time of 30 minutes and maximum equilibration time of 180 minutes with a 3 minute data logging interval. Data were not corrected for the initial moisture content of the sample."}, "[2]": {"test": "Solubility of the lysine salt in solvents for NMR analysis", "type": "physicochemical", "excerpt": "Use of TFA as solvent cleaves the sulfate group at the C3 position. ^1H-NMR analysis (CF3COOD) indicated a 1/1 ratio of lysine to cholesterol, as well as ~0.2 eq. triethylamine and some iPrOH."}, "[3]": {"settings": "DVS, listed as crystalline 25HC3S potassium"}, "[4]": {"settings": "DVS, listed as crystalline 25HC3S choline"}, "[5]": {"settings": "DVS, listed as crystalline 25HC3S tromethammonium"}, "[6]": {"settings": "DVS, listed as crystalline 25HC3S benzathine"}, "[7]": {"settings": "DVS, listed as crystalline 25HC3S t-butylammonium"}}, "note": "Entries after “also recorded” stand apart in the source; their conditions may differ. Structures can show the parent of a compound that is named as a salt.", "data": [{"smiles": "CC(CCCC(C)(C)O)C1CCC2C3CC=C4CC(OS(=O)(=O)O)CCC4(C)C3CCC12C", "note": "(stereo not drawn) [Salt #1]", "values": [{"measurement": "Water uptake (weight gain) up to about 95% relative humidity", "setting": "[1]; [3]", "result": 2, "unit": "%"}, {"measurement": "Hygroscopicity (in words)", "setting": "[1]; [3]", "result": "limited hygroscopicity"}]}, {"smiles": "CC(CCCC(C)(C)O)C1CCC2C3CC=C4CC(OS(=O)(=O)O)CCC4(C)C3CCC12C", "note": "(stereo not drawn) [Salt #3]", "values": [{"measurement": "Water uptake (change in mass), 25% to 45% RH", "setting": "[1]; DVS, between 25% and 45% relative humidity", "result": "about 2.8%"}]}, {"smiles": "CC(CCCC(C)(C)O)C1CCC2C3CC=C4CC(OS(=O)(=O)O)CCC4(C)C3CCC12C", "note": "(stereo not drawn) [Salt #4]", "values": [{"measurement": "Weight loss on return to 5% relative humidity", "setting": "[1]; DVS desorption, 95% to 5% RH", "result": 0.5, "unit": "%"}, {"measurement": "Reversibility of water uptake (in words)", "setting": "[1]; [4]", "result": "no hysteresis; also recorded: reversibly lose all that water"}, {"measurement": "Hygroscopicity (in words)", "setting": "[1]; DVS, listed as 25HC3S choline", "result": "surprisingly low hygroscopicity"}, {"measurement": "Hygroscopicity (in words)", "setting": "[1]; [4]", "result": "not appreciably hygroscopic; also recorded: less hygroscopic"}]}, {"smiles": "CC(CCCC(C)(C)O)C1CCC2C3CC=C4CC(OS(=O)(=O)O)CCC4(C)C3CCC12C", "note": "(stereo not drawn) [Salt #5]", "values": [{"measurement": "Hygroscopicity (in words)", "setting": "[1]; DVS, listed as crystalline 25HC3S hydroxyethylammonium", "result": "hygroscopic"}]}, {"smiles": "CC(CCCC(C)(C)O)C1CCC2C3CC=C4CC(OS(=O)(=O)O)CCC4(C)C3CCC12C", "note": "(stereo not drawn) [Salt #7]", "values": [{"measurement": "Water uptake, plateau above 35% RH", "setting": "[1]; DVS, stable plateau above 35% relative humidity", "result": "about 3%"}]}, {"smiles": "CC(CCCC(C)(C)O)C1CCC2C3CC=C4CC(OS(=O)(=O)O)CCC4(C)C3CCC12C", "note": "(stereo not drawn) [Salt #8]", "values": [{"measurement": "Water uptake (weight gain) up to about 95% relative humidity", "setting": "[1]; [5]", "result": "over 20%"}, {"measurement": "Hygroscopicity (in words)", "setting": "[1]; [5]", "result": "hygroscopic"}]}, {"smiles": "CC(CCCC(C)(C)O)C1CCC2C3CC=C4CC(OS(=O)(=O)O)CCC4(C)C3CCC12C", "note": "(stereo not drawn) [Salt #9]", "values": [{"measurement": "Water uptake (weight gain) up to about 95% relative humidity", "setting": "[1]; [6]", "result": "less than 0.5%"}, {"measurement": "Reversibility of water uptake (in words)", "setting": "[1]; [6]", "result": "reversibly lose all that water"}, {"measurement": "Hygroscopicity (in words)", "setting": "[1]; [6]", "result": "low hygroscopicity"}]}, {"smiles": "CC(CCCC(C)(C)O)C1CCC2C3CC=C4CC(OS(=O)(=O)O)CCC4(C)C3CCC12C", "note": "(stereo not drawn) [Salt #10]", "values": [{"measurement": "Relative humidity above which the salt is hygroscopic", "setting": "[1]; DVS", "result": "above 75 % relative humidity"}]}, {"smiles": "CC(CCCC(C)(C)O)C1CCC2C3CC=C4CC(OS(=O)(=O)O)CCC4(C)C3CCC12C", "note": "(stereo not drawn) [Salt #12]", "values": [{"measurement": "Water uptake (weight gain) up to about 95% relative humidity", "setting": "[1]; [7]", "result": "less than 0.5%"}, {"measurement": "Reversibility of water uptake (in words)", "setting": "[1]; [7]", "result": "reversibly lose all that water"}, {"measurement": "Hygroscopicity (in words)", "setting": "[1]; [7]", "result": "low hygroscopicity"}]}, {"smiles": "C[C@H](CCCC(C)(C)O)[C@H]1CC[C@H]2[C@@H]3CC=C4C[C@@H](OS(=O)(=O)O)CC[C@]4(C)[C@H]3CC[C@]12C", "note": "[Salt #14]", "values": [{"measurement": "Solubility in other solvents (in words)", "setting": "[2]; any other common organic solvents or acidic or basic aqueous solutions", "result": "No solubility was detected"}, {"measurement": "Solubility in trifluoroacetic acid (in words)", "setting": "[2]; trifluoroacetic acid", "result": "only adequately soluble in trifluoroacetic acid"}, {"measurement": "Relative humidity above which the salt is hygroscopic", "setting": "[1]; DVS", "result": "above 75 % relative humidity"}]}]}
